Data published in publication PMC3706879, “The neurotrophic compound J147 reverses cognitive impairment in aged Alzheimer's disease mice” (Alzheimer's Research & Therapy, 2013).

How the values were obtained:
BDNF = test system: BDNF; parameters: method as in PMID 21343524; details: rat traumatic brain injury models; cited from earlier work
C57BL/6J mice [1] = experiment: fear conditioning, scopolamine induced memory impairment; assay type: in vivo; details: scopolamine 1 mg/kg i.p.; J147 200 ppm, donepezil 20 ppm in food; vs scopolamine
Method: (§1) A total of 60 male mice aged eight weeks were housed 4 per cage and were divided into five groups with 12 mice per group. Treatments were administered in the food (TestDiet® 5015, Richmond, IN, USA) for a period of two weeks before commencement of behavioral testing. […] Following two weeks of treatment, memory impairment was induced by intraperitoneal (i.p.) injection of scopolamine (1 mg/kg) 30 minutes prior to each of the following behavioral tests: Y-maze, probe trial of the water maze and contextual and cued fear conditioning. Mice were allowed to rest for two days between each behavior test. All mice received scopolamine except for one of the control groups, which received saline as a control. Mice were sacrificed 24 hours after the last behavioral test for tissue harvesting.
Fear conditioning to either a cue or a context represents a form of associative learning. The read-out that is measured in contextual and cued fear conditioning is a freezing response that occurs following the pairing of an unconditioned stimulus (US), such as a foot shock, with a conditioned stimulus (CS), such as a particular context or cue (tone). The mouse will freeze if it remembers and associates that environment with the aversive stimulus. The hippocampus and the amygdala are required for fear memory where the hippocampus is involved in the formation and retrieval of context fear associations and the amygdala is involved in conditioning and recall of associations to contextual and discrete cues. This assay used fear conditioning chambers from Med Associates Inc. with Video Freeze Software (Med Associates Inc, St. Albans, VT, USA). On Day 1, mice were trained by allowing them to explore the chamber for 120 sec, mice were then presented with a 30-sec tone (2 kHz with 85 dB intensity) immediately followed by a 2-sec foot shock (0.7 mA). The tone-shock pairing was repeated following a 30-sec interval and the mice were again allowed to explore for 120 sec before removing them from the chamber. On Day 2, contextual memory, which requires a functioning hippocampus, was tested by placing the mice in the chambers and allowing them to explore for the same length of time as the previous day but without the tone and the shock. On Day 3, cued or emotional memory was tested, which relies on both hippocampus and amygdala. […] On Day 2, the time spent freezing is measured over the entire time in the chamber. […] The percentage of time spent freezing by each mouse is averaged per group and then groups can be compared and P-values calculated to determine statistical significance. On Day 3, the percentage of time spent freezing during the two tones is averaged per group, and then groups can be compared and P-values calculated to determine statistical significance. […]

C57BL/6J mice [2] = experiment: two-day water maze, scopolamine induced memory impairment; assay type: in vivo; details: scopolamine 1 mg/kg i.p.; J147 200 ppm, donepezil 20 ppm in food for two weeks
Method: as §1
Spatial memory was determined using the two-day water maze in 23-month-old huAPPswe/PS1 transgenic mice fed J147 at 200 ppm in food for the previous three months. The protocol was adapted from a publication by Gulinello and colleagues. Water temperature remained at 27°C throughout the experiment. […] The time it took each mouse to find the hidden platform was measured as escape latency. […] All trials were recorded using the EthoVision Software and statistics were computed using GraphPad Instat software (GraphPad Software, San Diego, CA, USA).

C57BL/6J mice [3] = experiment: Y-maze, scopolamine induced memory impairment; assay type: in vivo; details: scopolamine 1 mg/kg i.p.; J147 200 ppm, donepezil 20 ppm in food for two weeks
Method: as §1
Spontaneous alternation, the tendency to alternate free choices in a Y-maze (three arms), is a model for studying short term working memory in mice. Mice were injected with 1 mg/kg of scopolamine or saline 30 minutes prior to testing. Then each mouse was placed in the center of the Y and arm entries were recorded by video camera and the order of entries were recorded for the first 15 entries. Spontaneous alternations are defined as consecutive triplets of different arm choices.

COc1cc(/C=C/c2cc(/C=C/c3ccc(O)c(OC)c3)n(-c3ccccc3)n2)ccc1O [CNB-001]
BDNF levels (BDNF): increases BDNF levels

COc1cc2c(cc1OC)C(=O)C(CC1CCN(Cc3ccccc3)CC1)C2 (centres unmarked) [donepezil, reference compound]
contextual memory (freezing Day 2) (C57BL/6J mice [1]): did not improve memory | cued memory (freezing in response to the tone, Day 3) (C57BL/6J mice [1]): neither effect was significant | spatial memory (time to find hidden platform) (C57BL/6J mice [2]): failed to rescue the deficit | short-term working memory (spontaneous alternations, Y maze) (C57BL/6J mice [3]): improve short-term working memory
